From ChEMBL document CHEMBL4477252, “Optimization of microtubule affinity regulating kinase (MARK) inhibitors with improved physical properties” (Bioorg Med Chem Lett, 2016)

Each compound was assayed against Serine/threonine-protein kinase MRCK alpha (Homo sapiens, UniProt Q5VT25) (assay: Inhibition of recombinant human His-tagged CDC42BPA catalytic domain expressed in baculovirus expression system by Z'-LYTE assay).
Sequence of Serine/threonine-protein kinase MRCK alpha (Q5VT25 whole entry, the tested form may be a part): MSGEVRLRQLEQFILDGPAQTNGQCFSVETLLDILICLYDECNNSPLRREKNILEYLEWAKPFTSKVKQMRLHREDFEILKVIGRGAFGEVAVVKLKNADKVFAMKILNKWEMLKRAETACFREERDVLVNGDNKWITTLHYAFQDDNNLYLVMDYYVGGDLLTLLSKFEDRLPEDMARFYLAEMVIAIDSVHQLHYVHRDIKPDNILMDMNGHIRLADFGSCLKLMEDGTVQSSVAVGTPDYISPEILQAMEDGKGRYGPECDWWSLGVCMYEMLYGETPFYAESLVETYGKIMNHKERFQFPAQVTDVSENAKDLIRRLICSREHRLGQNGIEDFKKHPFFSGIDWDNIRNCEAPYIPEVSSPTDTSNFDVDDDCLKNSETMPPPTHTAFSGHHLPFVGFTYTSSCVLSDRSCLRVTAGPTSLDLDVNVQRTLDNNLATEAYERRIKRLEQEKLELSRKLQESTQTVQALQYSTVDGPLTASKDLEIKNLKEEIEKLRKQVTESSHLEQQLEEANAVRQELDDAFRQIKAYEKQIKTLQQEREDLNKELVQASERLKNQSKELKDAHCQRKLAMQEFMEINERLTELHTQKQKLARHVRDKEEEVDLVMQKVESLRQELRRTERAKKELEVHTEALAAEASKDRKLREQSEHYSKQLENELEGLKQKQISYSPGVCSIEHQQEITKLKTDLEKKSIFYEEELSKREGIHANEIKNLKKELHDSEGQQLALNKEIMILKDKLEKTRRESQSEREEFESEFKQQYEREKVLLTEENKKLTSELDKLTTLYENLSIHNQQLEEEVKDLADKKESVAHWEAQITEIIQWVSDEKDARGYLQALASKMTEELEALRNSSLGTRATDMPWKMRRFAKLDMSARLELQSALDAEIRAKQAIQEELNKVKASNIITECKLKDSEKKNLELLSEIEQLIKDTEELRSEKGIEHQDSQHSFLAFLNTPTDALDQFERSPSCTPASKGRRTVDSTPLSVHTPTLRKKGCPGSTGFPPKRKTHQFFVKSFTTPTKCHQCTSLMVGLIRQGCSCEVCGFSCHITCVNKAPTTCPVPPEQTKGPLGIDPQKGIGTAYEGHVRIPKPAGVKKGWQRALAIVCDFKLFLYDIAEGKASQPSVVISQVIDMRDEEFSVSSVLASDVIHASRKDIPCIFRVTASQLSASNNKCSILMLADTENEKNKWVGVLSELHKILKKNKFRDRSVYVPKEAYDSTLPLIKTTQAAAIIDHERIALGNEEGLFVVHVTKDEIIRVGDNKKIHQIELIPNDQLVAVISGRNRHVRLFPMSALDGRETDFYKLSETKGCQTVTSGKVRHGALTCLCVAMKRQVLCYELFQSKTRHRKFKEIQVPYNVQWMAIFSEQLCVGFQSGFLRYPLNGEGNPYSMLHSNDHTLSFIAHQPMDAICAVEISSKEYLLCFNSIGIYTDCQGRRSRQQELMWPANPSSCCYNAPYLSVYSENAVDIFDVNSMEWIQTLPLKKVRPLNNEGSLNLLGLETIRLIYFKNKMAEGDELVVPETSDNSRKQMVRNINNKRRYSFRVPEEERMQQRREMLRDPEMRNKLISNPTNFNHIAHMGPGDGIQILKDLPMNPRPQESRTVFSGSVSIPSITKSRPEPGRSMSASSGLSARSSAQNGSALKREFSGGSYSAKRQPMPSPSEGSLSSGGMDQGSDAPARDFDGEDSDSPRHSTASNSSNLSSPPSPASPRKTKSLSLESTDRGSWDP

| Structure (SMILES) | IC50 [µM] |
| --- | --- |
| Cn1cc(-c2cnc3c(-c4csc(C(=O)NCC(F)(F)F)c4)cnn3c2)cn1 | 9.2 |
| Cc1sc(C(=O)N[C@@H]2[C@H](N)CCCC2(F)F)cc1-c1cnn2cc(Cl)cnc12 | 1 |
| O=C(NCC(F)(F)F)c1cc(-c2cnn3cc(-c4ccc(OCCN5CCCCC5)cc4)cnc23)cs1 | 1.2 |
| Cn1cc(-c2cnc3c(-c4csc(C(=O)N[C@@H]5CCCC[C@@H]5N)c4)cnn3c2)cn1 (racemic) | 0.072 |

Each compound was assayed against Serine/threonine-protein kinase Nek4 (Homo sapiens, UniProt P51957) (assay: Inhibition of full-length recombinant human GST-tagged NEK4 expressed in baculovirus expression system by Z'-LYTE assay).
Sequence of Serine/threonine-protein kinase Nek4 (P51957 whole entry): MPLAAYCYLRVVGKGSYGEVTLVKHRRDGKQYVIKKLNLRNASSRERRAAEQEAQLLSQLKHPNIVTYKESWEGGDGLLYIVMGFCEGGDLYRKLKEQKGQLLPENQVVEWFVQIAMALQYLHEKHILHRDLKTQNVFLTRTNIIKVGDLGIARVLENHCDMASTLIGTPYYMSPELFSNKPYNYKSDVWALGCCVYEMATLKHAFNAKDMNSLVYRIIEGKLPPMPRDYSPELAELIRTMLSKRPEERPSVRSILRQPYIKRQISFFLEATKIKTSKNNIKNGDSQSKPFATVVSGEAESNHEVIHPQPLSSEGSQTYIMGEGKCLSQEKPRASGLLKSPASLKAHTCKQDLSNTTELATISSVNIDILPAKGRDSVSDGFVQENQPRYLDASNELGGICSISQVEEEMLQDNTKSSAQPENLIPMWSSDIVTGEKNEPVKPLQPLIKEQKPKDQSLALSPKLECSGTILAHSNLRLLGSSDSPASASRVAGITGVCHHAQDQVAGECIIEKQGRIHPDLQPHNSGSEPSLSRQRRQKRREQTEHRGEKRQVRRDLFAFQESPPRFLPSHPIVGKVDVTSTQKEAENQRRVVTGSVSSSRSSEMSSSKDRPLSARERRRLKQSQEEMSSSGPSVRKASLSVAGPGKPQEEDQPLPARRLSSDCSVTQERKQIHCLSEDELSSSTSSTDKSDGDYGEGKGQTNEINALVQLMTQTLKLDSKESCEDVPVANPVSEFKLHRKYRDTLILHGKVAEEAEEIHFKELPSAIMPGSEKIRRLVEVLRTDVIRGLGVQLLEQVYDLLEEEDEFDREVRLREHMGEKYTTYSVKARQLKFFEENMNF

| Structure (SMILES) | IC50 [µM] |
| --- | --- |
| Cn1cc(-c2cnc3c(-c4csc(C(=O)NCC(F)(F)F)c4)cnn3c2)cn1 | 0.24 |
| Cc1sc(C(=O)N[C@@H]2[C@H](N)CCCC2(F)F)cc1-c1cnn2cc(Cl)cnc12 | 0.48 |
| O=C(NCC(F)(F)F)c1cc(-c2cnn3cc(-c4ccc(OCCN5CCCCC5)cc4)cnc23)cs1 | 0.16 |
| Cn1cc(-c2cnc3c(-c4csc(C(=O)N[C@@H]5CCCC[C@@H]5N)c4)cnn3c2)cn1 (racemic) | 0.048 |

The compounds below were run against T1, Serine/threonine-protein kinase TAO2 (Homo sapiens, UniProt Q9UL54) (assay: Inhibition of recombinant human GST-tagged TAOK2 catalytic domain expressed in baculovirus expression system by Z'-LYTE assay).
T1 sequence (Q9UL54 whole entry): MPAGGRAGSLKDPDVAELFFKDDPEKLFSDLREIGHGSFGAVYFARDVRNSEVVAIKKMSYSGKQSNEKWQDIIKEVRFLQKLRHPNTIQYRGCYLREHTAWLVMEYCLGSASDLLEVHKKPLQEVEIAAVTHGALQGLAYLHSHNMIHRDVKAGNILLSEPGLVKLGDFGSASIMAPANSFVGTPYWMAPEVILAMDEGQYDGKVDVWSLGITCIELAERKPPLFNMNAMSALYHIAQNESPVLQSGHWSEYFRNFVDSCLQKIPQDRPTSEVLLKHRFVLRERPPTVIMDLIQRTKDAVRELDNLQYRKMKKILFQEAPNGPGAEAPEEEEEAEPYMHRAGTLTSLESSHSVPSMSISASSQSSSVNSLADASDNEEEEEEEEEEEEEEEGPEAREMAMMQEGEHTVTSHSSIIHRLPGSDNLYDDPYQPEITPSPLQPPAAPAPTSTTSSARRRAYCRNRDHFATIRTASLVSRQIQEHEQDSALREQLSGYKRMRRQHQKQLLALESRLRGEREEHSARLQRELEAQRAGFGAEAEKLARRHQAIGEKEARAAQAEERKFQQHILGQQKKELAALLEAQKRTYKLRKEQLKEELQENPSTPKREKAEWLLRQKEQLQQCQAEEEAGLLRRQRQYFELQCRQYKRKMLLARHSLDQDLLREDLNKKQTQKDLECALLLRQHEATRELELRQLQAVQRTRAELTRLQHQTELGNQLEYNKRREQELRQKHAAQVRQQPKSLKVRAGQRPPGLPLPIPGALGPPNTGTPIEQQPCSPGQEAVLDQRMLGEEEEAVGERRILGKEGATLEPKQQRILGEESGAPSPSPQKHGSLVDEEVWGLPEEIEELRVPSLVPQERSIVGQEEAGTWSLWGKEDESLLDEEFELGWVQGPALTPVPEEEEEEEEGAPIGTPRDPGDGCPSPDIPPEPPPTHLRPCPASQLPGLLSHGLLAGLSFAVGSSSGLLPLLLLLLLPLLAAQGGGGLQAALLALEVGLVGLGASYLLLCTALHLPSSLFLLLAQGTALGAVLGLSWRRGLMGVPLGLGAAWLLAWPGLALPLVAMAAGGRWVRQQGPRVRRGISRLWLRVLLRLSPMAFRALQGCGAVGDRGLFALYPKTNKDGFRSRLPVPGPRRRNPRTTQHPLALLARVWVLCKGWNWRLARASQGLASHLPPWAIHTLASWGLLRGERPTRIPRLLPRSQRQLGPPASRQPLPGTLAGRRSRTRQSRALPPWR

| Structure (SMILES) | IC50 [µM] |
| --- | --- |
| Cn1cc(-c2cnc3c(-c4csc(C(=O)NCC(F)(F)F)c4)cnn3c2)cn1 | 25 |
| Cc1sc(C(=O)N[C@@H]2[C@H](N)CCCC2(F)F)cc1-c1cnn2cc(Cl)cnc12 | 11 |
| O=C(NCC(F)(F)F)c1cc(-c2cnn3cc(-c4ccc(OCCN5CCCCC5)cc4)cnc23)cs1 | 2.7 |
| Cn1cc(-c2cnc3c(-c4csc(C(=O)N[C@@H]5CCCC[C@@H]5N)c4)cnn3c2)cn1 (racemic) | 0.42 |

What follows are compounds tested against Receptor tyrosine-protein kinase erbB-2 (Homo sapiens, UniProt P04626) (assay: Inhibition of recombinant human His-tagged cytoplasmic ERBB2 expressed in baculovirus expression system by Z'-LYTE assay).

| Structure (SMILES) | IC50 [µM] |
| --- | --- |
| Cn1cc(-c2cnc3c(-c4csc(C(=O)NCC(F)(F)F)c4)cnn3c2)cn1 | > 100 |
| Cc1sc(C(=O)N[C@@H]2[C@H](N)CCCC2(F)F)cc1-c1cnn2cc(Cl)cnc12 | > 100 |
| O=C(NCC(F)(F)F)c1cc(-c2cnn3cc(-c4ccc(OCCN5CCCCC5)cc4)cnc23)cs1 | 35 |
| Cn1cc(-c2cnc3c(-c4csc(C(=O)N[C@@H]5CCCC[C@@H]5N)c4)cnn3c2)cn1 (racemic) | 1 |

The compounds below were run against Macrophage colony-stimulating factor 1 receptor (Homo sapiens, UniProt P07333) (assay: Inhibition of recombinant human His-tagged cytoplasmic CSF1R expressed in baculovirus expression system by Z'-LYTE assay).
Sequence of Macrophage colony-stimulating factor 1 receptor (P07333 whole entry): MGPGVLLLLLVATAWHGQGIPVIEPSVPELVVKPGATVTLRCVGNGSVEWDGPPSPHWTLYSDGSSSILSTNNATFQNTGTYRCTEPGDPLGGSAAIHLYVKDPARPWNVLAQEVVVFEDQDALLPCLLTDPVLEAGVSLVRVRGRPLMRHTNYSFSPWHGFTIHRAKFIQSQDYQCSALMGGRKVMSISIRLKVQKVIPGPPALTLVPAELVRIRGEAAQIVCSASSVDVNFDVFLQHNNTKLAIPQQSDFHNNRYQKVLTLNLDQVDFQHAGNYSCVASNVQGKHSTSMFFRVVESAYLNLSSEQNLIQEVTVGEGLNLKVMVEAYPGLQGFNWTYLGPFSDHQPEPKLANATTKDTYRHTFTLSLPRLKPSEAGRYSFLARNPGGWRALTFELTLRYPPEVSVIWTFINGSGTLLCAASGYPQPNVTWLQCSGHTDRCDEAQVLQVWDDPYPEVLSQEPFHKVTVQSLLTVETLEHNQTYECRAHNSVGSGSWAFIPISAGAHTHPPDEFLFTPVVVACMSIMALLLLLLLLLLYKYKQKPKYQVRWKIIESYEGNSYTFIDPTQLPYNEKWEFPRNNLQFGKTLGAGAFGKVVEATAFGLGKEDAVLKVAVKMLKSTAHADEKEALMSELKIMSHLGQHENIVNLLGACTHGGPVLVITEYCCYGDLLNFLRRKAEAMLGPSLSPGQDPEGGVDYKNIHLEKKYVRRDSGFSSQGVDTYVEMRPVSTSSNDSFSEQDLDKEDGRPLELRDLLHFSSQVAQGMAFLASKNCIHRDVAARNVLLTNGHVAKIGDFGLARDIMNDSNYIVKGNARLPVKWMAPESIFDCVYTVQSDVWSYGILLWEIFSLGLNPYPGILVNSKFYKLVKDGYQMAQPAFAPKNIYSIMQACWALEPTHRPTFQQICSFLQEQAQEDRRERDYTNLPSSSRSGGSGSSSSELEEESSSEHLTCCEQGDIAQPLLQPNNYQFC

| Structure (SMILES) | IC50 [µM] |
| --- | --- |
| Cn1cc(-c2cnc3c(-c4csc(C(=O)NCC(F)(F)F)c4)cnn3c2)cn1 | 0.1 |
| Cc1sc(C(=O)N[C@@H]2[C@H](N)CCCC2(F)F)cc1-c1cnn2cc(Cl)cnc12 | 22 |
| O=C(NCC(F)(F)F)c1cc(-c2cnn3cc(-c4ccc(OCCN5CCCCC5)cc4)cnc23)cs1 | 0.041 |
| Cn1cc(-c2cnc3c(-c4csc(C(=O)N[C@@H]5CCCC[C@@H]5N)c4)cnn3c2)cn1 (racemic) | 0.0033 |

These compounds were tested against T2, Protein kinase C iota type (Homo sapiens, UniProt P41743) (assay: Inhibition of full-length recombinant human His-tagged PRKCI expressed in baculovirus expression system by Z'-LYTE assay).
T2 sequence (P41743 whole entry): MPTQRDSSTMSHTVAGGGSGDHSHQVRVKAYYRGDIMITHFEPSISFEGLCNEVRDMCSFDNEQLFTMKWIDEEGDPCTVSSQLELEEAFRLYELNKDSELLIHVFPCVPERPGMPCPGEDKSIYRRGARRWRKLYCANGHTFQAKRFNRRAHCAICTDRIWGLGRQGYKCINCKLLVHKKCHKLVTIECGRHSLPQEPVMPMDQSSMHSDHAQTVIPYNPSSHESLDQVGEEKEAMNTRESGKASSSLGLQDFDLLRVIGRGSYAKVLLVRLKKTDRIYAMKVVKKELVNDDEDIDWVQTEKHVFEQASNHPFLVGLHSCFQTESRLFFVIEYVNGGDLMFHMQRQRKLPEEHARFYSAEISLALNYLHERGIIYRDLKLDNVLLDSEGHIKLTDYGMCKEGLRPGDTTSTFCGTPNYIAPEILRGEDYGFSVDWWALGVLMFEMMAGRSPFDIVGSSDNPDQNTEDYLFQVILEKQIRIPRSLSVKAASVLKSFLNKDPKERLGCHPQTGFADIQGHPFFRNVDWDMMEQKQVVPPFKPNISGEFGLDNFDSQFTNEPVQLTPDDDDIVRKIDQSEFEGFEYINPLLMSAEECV

| Structure (SMILES) | IC50 [µM] |
| --- | --- |
| Cn1cc(-c2cnc3c(-c4csc(C(=O)NCC(F)(F)F)c4)cnn3c2)cn1 | 6.7 |
| Cc1sc(C(=O)N[C@@H]2[C@H](N)CCCC2(F)F)cc1-c1cnn2cc(Cl)cnc12 | 0.72 |
| O=C(NCC(F)(F)F)c1cc(-c2cnn3cc(-c4ccc(OCCN5CCCCC5)cc4)cnc23)cs1 | 1.5 |
| Cn1cc(-c2cnc3c(-c4csc(C(=O)N[C@@H]5CCCC[C@@H]5N)c4)cnn3c2)cn1 (racemic) | 0.037 |

What follows are compounds tested against Tyrosine-protein kinase HCK (Homo sapiens, UniProt P08631) (assay: Inhibition of full-length human N-terminal GST-tagged HCK expressed in baculovirus expression system by Z'-LYTE assay).
Sequence of Tyrosine-protein kinase HCK (P08631 whole entry): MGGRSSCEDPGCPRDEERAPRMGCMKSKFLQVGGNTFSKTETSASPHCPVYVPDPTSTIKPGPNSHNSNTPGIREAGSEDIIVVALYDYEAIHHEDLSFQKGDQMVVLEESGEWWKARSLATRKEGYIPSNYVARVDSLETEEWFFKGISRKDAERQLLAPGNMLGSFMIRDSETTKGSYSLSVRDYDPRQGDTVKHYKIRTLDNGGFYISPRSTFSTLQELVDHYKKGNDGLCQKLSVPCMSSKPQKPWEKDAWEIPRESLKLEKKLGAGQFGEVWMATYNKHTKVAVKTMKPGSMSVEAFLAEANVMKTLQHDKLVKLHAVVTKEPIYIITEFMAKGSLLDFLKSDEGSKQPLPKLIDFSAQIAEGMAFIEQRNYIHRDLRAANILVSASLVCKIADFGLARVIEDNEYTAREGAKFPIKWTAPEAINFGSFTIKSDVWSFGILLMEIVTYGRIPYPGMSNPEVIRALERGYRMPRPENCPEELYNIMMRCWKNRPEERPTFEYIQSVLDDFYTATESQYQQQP

| Structure (SMILES) | IC50 [µM] |
| --- | --- |
| Cn1cc(-c2cnc3c(-c4csc(C(=O)NCC(F)(F)F)c4)cnn3c2)cn1 | 0.033 |
| Cc1sc(C(=O)N[C@@H]2[C@H](N)CCCC2(F)F)cc1-c1cnn2cc(Cl)cnc12 | 6.4 |
| O=C(NCC(F)(F)F)c1cc(-c2cnn3cc(-c4ccc(OCCN5CCCCC5)cc4)cnc23)cs1 | 0.03 |
| Cn1cc(-c2cnc3c(-c4csc(C(=O)N[C@@H]5CCCC[C@@H]5N)c4)cnn3c2)cn1 (racemic) | 0.0028 |

Each compound was assayed against cAMP-dependent protein kinase catalytic subunit alpha (Homo sapiens, UniProt P17612) (assay: Inhibition of recombinant human His-tagged PRKACA catalytic domain expressed in Escherichia coli by Z'-LYTE assay).

| Structure (SMILES) | IC50 [µM] |
| --- | --- |
| Cn1cc(-c2cnc3c(-c4csc(C(=O)NCC(F)(F)F)c4)cnn3c2)cn1 | > 100 |
| Cc1sc(C(=O)N[C@@H]2[C@H](N)CCCC2(F)F)cc1-c1cnn2cc(Cl)cnc12 | 3 |
| O=C(NCC(F)(F)F)c1cc(-c2cnn3cc(-c4ccc(OCCN5CCCCC5)cc4)cnc23)cs1 | 15 |
| Cn1cc(-c2cnc3c(-c4csc(C(=O)N[C@@H]5CCCC[C@@H]5N)c4)cnn3c2)cn1 (racemic) | 0.027 |
